Each structure is given as a SMILES string. Numbered stars: 1 amine (or outer) side, 2 acyl side, 3 side chain; on linkers, the order of the positions; unused ones are H or OH. Bridge positions count the residues as written; N and C are the ends. Square brackets hold non-standard residues; d marks the D form. Peptide text beside a SMILES is read from it. * marks the point of attachment. hPhe(3,5-F2-4-CF3) = N[C@@H](CCc1cc(F)c(C(F)(F)F)c(F)c1)C(=O)O; hPhe(3-Cl-4-CF3) = N[C@@H](CCc1ccc(C(F)(F)F)c(Cl)c1)C(=O)O; hPhe(3-F,4-CF3) = N[C@@H](CCc1ccc(C(F)(F)F)c(F)c1)C(=O)O; NMePhe(4-CF3) = CN[C@@H](Cc1ccc(C(F)(F)F)cc1)C(=O)O; X52 = CN([C@@H](Cc1ccccc1OC(F)(F)F)C(=O)[*:2])[*:1]; Phe(2-OCF3) = N[C@@H](Cc1ccccc1OC(F)(F)F)C(=O)O; 3Oxa8azabicyclo(3.2.1)octane = C1CC2COCC1N2*; NEtPhe(4-Me) = CCN[C@@H](Cc1ccc(C)cc1)C(=O)O; NMePhe(4-Me) = CN[C@@H](Cc1ccc(C)cc1)C(=O)O; NMeGly(cPent) = CN[C@H](C(=O)O)C1CCCC1; Phe(3-I) = N[C@@H](Cc1cccc(I)c1)C(=O)O; Pro(4,4-F2) = O=C(O)[C@@H]1CC(F)(F)CN1; NMeCha = CN[C@@H](CC1CCCCC1)C(=O)O; N(isopentyl)Gly = CC(C)CCNCC(=O)O; NMehLeu = CN[C@@H](CCC(C)C)C(=O)O; NMeChg = CN[C@H](C(=O)O)C1CCCCC1; NMeF = CN[C@@H](Cc1ccccc1)C(=O)O; NMeI = CC[C@H](C)[C@H](NC)C(=O)O; NMeD = CN[C@@H](CC(=O)O)C(=O)O; NMeL = CN[C@@H](CC(C)C)C(=O)O; NMeV = CN[C@H](C(=O)O)C(C)C; d(β3hA) = C[C@@H](N)CC(=O)O; NMeA = CN[C@@H](C)C(=O)O; NMeAib = CNC(C)(C)C(=O)O; Nle = CCCC[C@H](N)C(=O)O; Piperidide = C1CCN(*)CC1; Pyrrolidide = C1CCN(*)C1; Ac5c = NC1(C(=O)O)CCCC1; Aze = O=C(O)[C@@H]1CCN1; Abu = CC[C@H](N)C(=O)O; Sar = CNCC(=O)O Some results are limits rather than exact numbers.

The experiment concerns Human pancreatic cancer cell line AsPC-1 (G12D mutation Kras). Description: AsPC-1 cell growth inhibition (AsPC-1 CGI). The class given is cell-based. Conditions: read-out: AsPC-1 cell growth inhibition, 50% growth inhibitory concentration (IC50 value); 96 hours, CellTiter-Glo, values classified in ranges. A general note: ATP-based viability assays read luminescence as a measure of living cells.
Experimental: Test compounds were serially dilated with dimethyl sulfoxide, and 200 nL was then dispensed to a U-bottom 96-well plate using Labcyte Echo. […] The cell suspension was dispensed to a. plate containing a test compound at 100 μL per well and incubated at 37° C. in a 5% carbon dioxide gas incubator. 96 hours later, 80 μL of CellTiter-Glo (Promega) was added to each well and fluorescence was measured.
Turning to `CC[C@H](C)[C@@H]1NC(=O)[C@H](CC(C)C)N(C)C(=O)C[C@@H](C(=O)N2CCCCC2)N(C)C(=O)[C@H](CC(C)C)NC(=O)C(C)(C)N(C)C(=O)[C@H](Cc2ccccc2OC(F)(F)F)NC(=O)[C@H](Cc2cccc(I)c2)NC(=O)CN(C)C(=O)[C@H](Cc2ccc(C)cc2)N(C)C(=O)[C@@H]2CCN2C(=O)[C@H](C)N(C)C1=O` [Compound 1129] ([NMeL]I[NMeA][Aze][NMePhe(4-Me)][Sar][Phe(3-I)][Phe(2-OCF3)][NMeAib]L[NMeD]-Piperidide; lactam N-11), the IC50 was more than 0.5 µM.

Consider `CC[C@@H]1NC(=O)[C@H](CC(C)C)N(C)C(=O)C[C@@H](C(=O)N2CCCCC2)N(C)C(=O)[C@H](C2CCCCC2)N(C)C(=O)C2(CCCC2)NC(=O)[C@@H]2CCCN2C(=O)[C@H](CCc2ccc(C(F)(F)F)c(Cl)c2)NC(=O)CN(C)C(=O)[C@H](CC2CCCCC2)N(C)C(=O)CN(C)C(=O)CN(C)C1=O` [Compound 1775] ([NMeL][Abu][Sar][Sar][NMeCha][Sar][hPhe(3-Cl-4-CF3)]P[Ac5c][NMeChg][NMeD]-Piperidide; lactam N-11), for which the IC50 is more than 0.5 µM.

Consider `CC[C@H](C)[C@@H]1NC(=O)[C@H](CC(C)C)N(C)C(=O)C[C@@H](C(=O)N(C)C)N(C)C(=O)[C@H](C2CCCC2)N(C)C(=O)C2(CCCC2)NC(=O)[C@@H]2CC(F)(F)CN2C(=O)[C@H](CCc2cc(F)c(C(F)(F)F)c(F)c2)NC(=O)CN(C)C(=O)[C@H](CC2CCCCC2)N(C)C(=O)[C@@H]2CCN2C(=O)[C@H](C)N(C)C1=O` [Compound 1346] ([NMeL]I[NMeA][Aze][NMeCha][Sar][hPhe(3,5-F2-4-CF3)][Pro(4,4-F2)][Ac5c][NMeGly(cPent)][NMeD]-NMe2; lactam N-11), for which the IC50 is not above 0.02 µM.

With `CC[C@H](C)[C@@H]1NC(=O)[C@H](CCC(C)C)N(C)C(=O)C[C@@H](C(=O)N2CCCC2)N(C)C(=O)[C@H]([C@@H](C)CC)N(C)C(=O)C2(CCCC2)NC(=O)[C@@H]2CCCN2C(=O)[C@H](CCc2ccc(C(F)(F)F)c(Cl)c2)NC(=O)CN(C)C(=O)[C@H](Cc2ccc(C(F)(F)F)cc2)N(C)C(=O)[C@@H]2CCN2C(=O)[C@H](C)N(C)C1=O` [Compound 1289] ([NMehLeu]I[NMeA][Aze][NMePhe(4-CF3)][Sar][hPhe(3-Cl-4-CF3)]P[Ac5c][NMeI][NMeD]-Pyrrolidide; lactam N-11), the IC50 was not above 0.02 µM.

With `CC[C@H](C)[C@@H]1NC(=O)[C@H](CC(C)C)N(C)C(=O)C[C@@H](C)NC(=O)[C@H](C(C)C)N(C)C(=O)C2(CCCC2)NC(=O)[C@@H]2CCCN2C(=O)[C@H](CCc2ccc(C(F)(F)F)c(Cl)c2)NC(=O)CN(C)C(=O)[C@H](Cc2ccccc2)N(C)C(=O)CN(C)C(=O)CN(C)C1=O` [Compound 1606] (cyclo([Ac5c][NMeV][d(β3hA)][NMeL]I[Sar][Sar][NMeF][Sar][hPhe(3-Cl-4-CF3)]P)), the IC50 is more than 0.5 µM.

As to `CC[C@H](C)[C@@H]1NC(=O)[C@H](CC(C)C)N(C)C(=O)C[C@@H](C(=O)N2C3CCC2COC3)N(C)C(=O)[C@H](C2CCCC2)N(C)C(=O)C2(CCCC2)NC(=O)[C@@H]2CCCN2C(=O)[C@H](CCc2cc(F)c(C(F)(F)F)c(F)c2)NC(=O)CN(C)C(=O)[C@H](Cc2ccc(C)cc2)N(CC)C(=O)[C@@H]2CCN2C(=O)[C@H](C)N(C)C1=O` [Compound 1215] ([NMeL]I[NMeA][Aze][NEtPhe(4-Me)][Sar][hPhe(3,5-F2-4-CF3)]P[Ac5c][NMeGly(cPent)][NMeD]-{3Oxa8azabicyclo(3.2.1)octane}; lactam N-11), the IC50 was not above 0.02 µM.

As for `CC[C@H](C)[C@@H]1NC(=O)[C@H](CC(C)C)N(C)C(=O)C[C@@H](C)NC(=O)[C@H](C(C)C)N(C)C(=O)C2(CCCC2)NC(=O)[C@@H]2CCCN2C(=O)[C@H](CCc2ccc(C(F)(F)F)c(Cl)c2)NC(=O)CN(C)C(=O)[C@H](Cc2ccccc2OC(F)(F)F)N(C)C(=O)CN(C)C(=O)CN(C)C1=O` [Compound 1635] (cyclo([Ac5c][NMeV][d(β3hA)][NMeL]I[Sar][Sar][X52][Sar][hPhe(3-Cl-4-CF3)]P)), the IC50 is more than 0.5 µM.

As for `CC[C@H](C)[C@@H]1NC(=O)[C@H](CC(C)C)N(C)C(=O)C[C@@H](C)NC(=O)[C@H](C(C)C)N(C)C(=O)C2(CCCC2)NC(=O)[C@@H]2CCCN2C(=O)[C@H](CCc2ccc(C(F)(F)F)c(Cl)c2)NC(=O)CN(C)C(=O)[C@H](CC2CCCCC2)N(C)C(=O)CN(CCC(C)C)C(=O)CN(C)C1=O` [Compound 801] (cyclo([Ac5c][NMeV][d(β3hA)][NMeL]I[Sar][N(isopentyl)Gly][NMeCha][Sar][hPhe(3-Cl-4-CF3)]P)), the IC50 is more than 0.5 µM.

For `CCCC[C@@H]1NC(=O)[C@H](CC(C)C)N(C)C(=O)C[C@@H](C)NC(=O)[C@H](CC(C)C)N(C)C(=O)C2(CCCC2)NC(=O)[C@@H]2CCCN2C(=O)[C@H](CCc2ccc(C(F)(F)F)c(F)c2)NC(=O)CN(C)C(=O)[C@H](CC2CCCCC2)N(C)C(=O)CN(C)C(=O)CN(C)C1=O` [Compound 1490] (cyclo([Ac5c][NMeL][d(β3hA)][NMeL][Nle][Sar][Sar][NMeCha][Sar][hPhe(3-F,4-CF3)]P)), the IC50 is more than 0.5 µM.
